Columns and labels:
Cannabinoid receptor 1 [1] = biological target: T1, Cannabinoid receptor 1 (Homo sapiens, UniProt P21554); experiment: Displacement of [3H]rimonabant from human CB1 receptor expressed in HEK293 cells assessed as signal point inhibition at 10 uM by liquid scintillation counting; format: cell-based
Cannabinoid receptor 1 [2] = biological target: T1, Cannabinoid receptor 1; experiment: biochemical; format: cell-based, HEK293
Cannabinoid receptor 2 = Cannabinoid receptor 2 (Homo sapiens, UniProt P34972); experiment: Displacement of [3H]rimonabant from human CB2 receptor expressed in HEK293 cells by liquid scintillation counting; format: cell-based
Homo sapiens = species: Homo sapiens; experiment: Selectivity ratio of Ki for human CB2 receptor to Ki for human CB1 receptor
Cannabinoid receptor 1 [3] = biological target: T1, Cannabinoid receptor 1; experiment: Inverse agonist activity at human CB1 receptor by [35S]GTPgammaS incorporation assay relative to rimonabant; format: functional; design: concentration or dose not given beside the values
Cannabinoid receptor 1 [4] = biological target: T1, Cannabinoid receptor 1; experiment: Inverse agonist activity at human CB1 receptor by [35S]GTPgammaS incorporation assay; format: functional

T1 sequence (P21554 whole entry): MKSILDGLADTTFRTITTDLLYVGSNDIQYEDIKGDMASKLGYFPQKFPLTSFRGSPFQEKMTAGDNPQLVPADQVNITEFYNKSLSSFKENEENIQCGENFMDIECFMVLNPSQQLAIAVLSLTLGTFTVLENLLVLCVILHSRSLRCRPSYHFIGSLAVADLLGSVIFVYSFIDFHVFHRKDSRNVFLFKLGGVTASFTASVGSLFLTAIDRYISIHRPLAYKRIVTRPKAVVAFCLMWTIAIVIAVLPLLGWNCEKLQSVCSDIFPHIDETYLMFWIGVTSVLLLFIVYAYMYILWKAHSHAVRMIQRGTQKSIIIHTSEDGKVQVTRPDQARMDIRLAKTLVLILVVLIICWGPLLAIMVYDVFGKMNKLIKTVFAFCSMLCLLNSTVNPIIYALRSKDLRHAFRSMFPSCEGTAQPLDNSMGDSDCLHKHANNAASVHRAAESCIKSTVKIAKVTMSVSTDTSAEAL
Cannabinoid receptor 2, sequence (P34972 whole entry): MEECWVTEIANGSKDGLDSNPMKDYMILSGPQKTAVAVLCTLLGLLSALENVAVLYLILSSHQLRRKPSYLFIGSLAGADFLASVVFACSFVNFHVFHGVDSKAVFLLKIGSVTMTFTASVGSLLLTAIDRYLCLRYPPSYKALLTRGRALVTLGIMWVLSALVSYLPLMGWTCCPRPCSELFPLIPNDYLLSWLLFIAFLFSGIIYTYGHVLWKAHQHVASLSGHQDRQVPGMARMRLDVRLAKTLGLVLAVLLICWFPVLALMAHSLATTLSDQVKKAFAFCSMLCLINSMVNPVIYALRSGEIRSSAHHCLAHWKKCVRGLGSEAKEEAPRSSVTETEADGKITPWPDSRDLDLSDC

Row | SMILES | inhibition (Cannabinoid receptor 1 [1]) [%] | Ki (Cannabinoid receptor 1 [2]) [nM] | Ki (Cannabinoid receptor 2) [nM] | Ratio Ki (Homo sapiens) | Activity (Cannabinoid receptor 1 [3]) [%] | EC50 (Cannabinoid receptor 1 [4]) [nM]
1 | CS/C(=N\S(=O)(=O)c1ccc(-n2nc(C(F)(F)F)cc2-c2cccs2)cc1)N1CCCC1 | 63 | 1000 |  |  |  | 
2 | COc1ccccc1NC(=O)C(C)Sc1nc(-c2ccc(C)cc2)nc2c1COC(C)(C)C2 (configuration not stated) | 85 | 264 | 10000 | > 37.9 | 91 | 1200
3 | CCOC(=O)N1CC=C2C(C1)C1(C(=O)N(Cc3ccccc3)c3ccccc31)C(C#N)=C(N)C2(C#N)C#N (configuration not stated) | 82 | 1090 |  |  |  | 
4 | Cc1ccc(C2c3cccn3-c3ccccc3N2C(=O)CN(C(=O)C2CCCC2)C2CC2)cc1 (configuration not stated) | 78 | 520 | 10000 | > 19.2 | 91 | 1100
5 | Cc1ccc(C(=O)n2cc(/C=N/Nc3nc(N4CCOCC4)nc(N4CCOCC4)n3)c3ccccc32)cc1 | 85 | 2300 |  |  |  | 
6 | O=C(Nc1ccccc1Oc1ccccc1)c1ccc(S(=O)(=O)N2CCc3ccccc32)cc1 | 82 | 256 | 10000 | > 39 | 62 | 200
7 | CC(C)(C)c1ccc(C(=O)N2C(C(=O)NCc3ccccn3)CSC2c2cccc(F)c2)cc1 (configuration not stated) | 62 | 7490 |  |  |  | 
8 | CC(C)NC(=O)C(C)Sc1nnc2c3ccccc3n(Cc3ccccc3)c2n1 (configuration not stated) | 86 | 2270 |  |  |  | 
9 | CCOC(=O)CN1C(c2ccc(F)cc2)Nc2ccc(Br)cc2C1c1ccccc1 (configuration not stated) | 77 | 273 |  |  |  | 
10 | Cc1cccc(C)c1N(C(=O)c1ccccc1Cl)C(=O)C(c1ccc([N+](=O)[O-])cc1)N1CCOCC1 (configuration not stated) | 79 | 2780 |  |  |  | 
11 | COc1ccc(C2c3cccn3-c3ccccc3N2C(=O)CN(C(=O)NC(C)(C)C)C(C)C)cc1 (configuration not stated) | 95 | 308 | 4950 | 16.1 | 103 | 1500
12 | Cc1cc(C)c(OCC(=O)Nc2sc3c(c2C(=O)NC2CCS(=O)(=O)C2)CCCC3)c(C)c1 (configuration not stated) | 94 | 325 | 58 | 0.2 | 60 | 400
13 | CC(C)N(CC(=O)N1c2ccccc2-n2cccc2C1c1ccc(F)cc1)C(=O)CC(C)(C)C (configuration not stated) | 64 | 1030 |  |  | 77 | 1100
14 | COc1ccc(C2c3ccsc3CCN2C(=O)CN(C(=O)C2CCCCC2)C(C)C)cc1 (configuration not stated) | 82 | 2590 |  |  |  | 
15 | COc1ccc(-c2cc(C(=O)N3CCN(C(C)=O)CC3)n(-c3cccc(C)c3)n2)c(OC)c1 | 77 | 1940 |  |  |  | 
16 | COc1ccc(C2C(C(=O)Nc3cccc(C)n3)c3ccccc3C(=O)N2C2CCCCC2)cc1 (configuration not stated) | 69 | 2400 |  |  |  | 
17 | CC1CC(C)CN(S(=O)(=O)c2ccc(F)c(C(=O)NC(c3ccccc3)c3ccccc3)c2)C1 (configuration not stated) | 77 | 611 | 10000 | > 16.4 | 50 | 500
18 | CC(C)CN(CC(=O)N1CCc2sccc2C1c1ccc(F)cc1)C(=O)c1ccco1 (configuration not stated) | 89 | 875 |  |  | 105 | 4400
19 | COc1cccc(N2C(C(C)=O)=NN(c3ccc(Cl)cc3)C2c2ccc(N3CCOCC3)cc2)c1 (configuration not stated) | 90 | 227 | 3920 | 17.3 | 81 | 600
20 | COc1ccccc1N1CCN(C(=O)C(C)Sc2nc(-c3ccccc3)cc(C(F)(F)F)n2)CC1 (configuration not stated) | 80 | 2310 |  |  |  | 
21 | O=C(c1ccc(-n2cnnn2)cc1)N(c1ccccc1)C1(C(=O)Nc2ccccc2)CCCCC1 | 71 | 1050 |  |  |  | 
22 | CC1CN(c2ncnc(NC(c3ccccc3)c3ccccc3)c2[N+](=O)[O-])CC(C)O1 (configuration not stated) | 67 | 1180 |  |  |  | 
23 | CCOC(=O)N1CCN(C(=O)c2cc(-c3ccccc3Cl)nn2-c2ccc(C)cc2C)CC1 | 98 | 287 | 1070 | 3.7 | 44 | 200
24 | CCCNC(=O)N1CCN(c2nc(Cc3ccccc3)c3c(c2C#N)CC(C)(C)OC3)CC1 | 81 | 3950 |  |  |  | 
25 | COC(=O)c1c(C)oc(C)c1S(=O)(=O)N1CCN(C2c3ccccc3-c3ccccc32)CC1 | 87 | 1610 |  |  |  | 
26 | Cc1ccc(C(C(=O)Nc2ccc3c(c2)OCCO3)N(C)C(=O)/C=C\c2ccc3c(c2)OCO3)cc1 (configuration not stated) | 71 | 1470 |  |  |  | 
27 | CCN(Cc1ccccc1)C(=O)c1oc2ccc(S(=O)(=O)N3CC(C)CC(C)C3)cc2c1C (configuration not stated) |  |  |  | 33.7 | 95 | 300
28 | CC(C(=O)N1c2ccccc2C(C)(c2ccc(Cl)cc2)CC1(C)C)N1C(=O)C2CCCCC2C1=O (configuration not stated) | 73 | 520 |  |  |  | 
29 | Cc1ccc(Cc2nsc(N3CCCN(C(=O)Nc4c(C(C)C)cccc4C(C)C)CC3)n2)cc1 | 77 | 1760 |  |  |  | 
30 | Cc1cc(-c2ccccc2)n(Cc2ccccc2)c(=O)c1S(=O)(=O)c1ccccc1 | 73 | 2720 |  |  |  | 

From ChEMBL document CHEMBL1152367, “Discovery and functional evaluation of diverse novel human CB(1) receptor ligands” (Bioorg Med Chem Lett, 2009)
